ChEMBL document CHEMBL1201862, “PubChem BioAssay data set” (2004)
Calls of active or inactive are those of the source.

Columns and labels:
[1] = target: Peroxisome proliferator-activated receptor gamma/Nuclear receptor coactivator 1 (Homo sapiens, UniProt P37231); assay: TR-FRET dose response biochemical High Throughput Screening assay for agonists of the steroid receptor coactivator 1 (SRC-1) recruitment by the peroxisome proliferator-activated receptor gamma (PPAR gamma): non-selective agonists. [Related pubchem assays (depositor defined):AID1300, AID1808, AID504735, AID631]; assay type: protein assay
[2] = target: Peroxisome proliferator-activated receptor gamma/Nuclear receptor coactivator 2 (Homo sapiens, UniProt P37231); assay: (§1) TR-FRET dose response biochemical High Throughput Screening assay for agonists of the steroid receptor coactivator 2 (SRC-2) recruitment by the peroxisome proliferator-activated receptor gamma (PPAR gamma): non-selective agonists. [Related pubchem assays: 1297, 1032 ]; assay type: functional
[3] = target: Peroxisome proliferator-activated receptor gamma/Nuclear receptor coactivator 3 (Homo sapiens, UniProt P37231); assay: as §1, with “3 (SRC-3)” for “2 (SRC-2)”, “1301 (Confirmation screen.), 1048 (Primary screen.)]” for “1297, 1032 ]”; assay type: functional
[4] = microbe, parasite or virus in culture; assay type: functional; settings: Mycobacterium tuberculosis
[5] = cells; assay type: functional
[6] = Vero E6 cell cytotoxicity, dose response, cytotoxicity control for non-replicating M. tuberculosis project, secondary assay (AID 492998); assay type: functional, VeroE6; settings: Vero C1008
[7] = THP-1 cell cytotoxicity, dose response, cytotoxicity control for non-replicating M. tuberculosis project (AID 489025); assay type: functional
[8] = target: T1, Runt-related transcription factor 1/Core-binding factor subunit beta (Homo sapiens, UniProt Q01196+Q13951); assay: inhibitors of RUNX1 Runt–CBFb-SMMHC binding, primary screen, biochemical, FRET, Cerulean-Runt, Venus-CBFb-SMMHC, uHTS (AID 1434); assay type: protein assay;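 note: partner is the CBFb-SMMHC leukemia fusion protein rather than wild-type CBFb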
[9] = target: T1, Runt-related transcription factor 1/Core-binding factor subunit beta; assay: inhibitors of RUNX1 Runt–CBFb-SMMHC binding, biochemical, TR-FRET (AID 1438); assay type: protein assay
[10] = target: DNA dC->dU-editing enzyme APOBEC-3A (Homo sapiens, UniProt P31941); assay: Dose Response confirmation of small molecule APOBEC3A DNA Deaminase Inhibitors via a fluorescence-based single-stranded DNA deaminase assay. [Related pubchem assays (depositor defined):AID493011, AID493024]; assay type: functional
[11] = target: DNA dC->dU-editing enzyme APOBEC-3G (Homo sapiens, UniProt Q9HC16); assay type: functional;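 note: Dose-response counterscreen measuring inhibition of APOBEC3G DNA deaminase activity, run while confirming APOBEC3A inhibitors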
[12] = target: T2, Mannose-6-phosphate isomerase (Homo sapiens, UniProt P34949); assay: inhibitors of human PMI, primary screen, biochemical, fluorescence intensity, coupled assay (AID 1209)
T2 sequence (P34949 whole entry): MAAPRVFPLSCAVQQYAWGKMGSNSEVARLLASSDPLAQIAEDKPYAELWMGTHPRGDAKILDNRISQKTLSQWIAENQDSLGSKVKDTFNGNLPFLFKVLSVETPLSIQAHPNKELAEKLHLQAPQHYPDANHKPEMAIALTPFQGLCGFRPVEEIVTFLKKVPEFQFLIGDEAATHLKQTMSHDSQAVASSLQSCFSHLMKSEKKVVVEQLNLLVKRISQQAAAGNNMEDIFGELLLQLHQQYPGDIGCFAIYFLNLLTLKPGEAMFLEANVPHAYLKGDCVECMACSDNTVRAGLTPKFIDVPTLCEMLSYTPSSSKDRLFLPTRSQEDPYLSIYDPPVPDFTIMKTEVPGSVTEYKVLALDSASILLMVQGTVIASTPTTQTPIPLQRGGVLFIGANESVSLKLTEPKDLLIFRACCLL

[13] = target: Nonstructural protein 1 (Influenza A virus, UniProt Q194T2); assay type: functional, Influenza A virus (A/California/07/2009(H1N1))
[14] = target: T2, Mannose-6-phosphate isomerase; assay: human PMI inhibitors, high substrate, primary screen, biochemical, fluorescence intensity, high mannose 6-phosphate (AID 1220)
[15] = target: Glucose-6-phosphate 1-dehydrogenase (Homo sapiens, UniProt P11413); assay: human G6PD enzyme inhibitors, dose response, selectivity assay for P. falciparum G6PD inhibitor project, biochemical, fluorescence (AID 504792); assay type: functional
[16] = system: HEK293; assay: NOD2 signaling inhibitors in MDP-stimulated cells, cell-based, uHTS, luminescence (AID 2001); assay type: functional; settings: Homo sapiens
[17] = system: HEK293; assay: cells; assay type: functional, cell-based; settings: Homo sapiens
[18] = system: HEK293; assay: cells; assay type: functional, cell-based; settings: Homo sapiens; remark: listed apart in the source
[19] = target: Nucleotide-binding oligomerization domain-containing protein 2 (Homo sapiens, UniProt Q9HC29); assay: NOD2 signaling inhibitors, cell-based, luminescence, uHTS, HEK293 (AID 1566); assay type: functional
[20] = target: T3, Protein RecA (Mycobacterium tuberculosis, UniProt P9WHJ3); assay: Fluorescence Cell-Free Homogeneous Dose Retest to Identify Inhibitors of RecA-Intein Splicing Activity. [Related pubchem assays (depositor defined):AID2097, AID2223, AID489010, AID492950]; assay type: functional
T3 sequence (P9WHJ3 whole entry): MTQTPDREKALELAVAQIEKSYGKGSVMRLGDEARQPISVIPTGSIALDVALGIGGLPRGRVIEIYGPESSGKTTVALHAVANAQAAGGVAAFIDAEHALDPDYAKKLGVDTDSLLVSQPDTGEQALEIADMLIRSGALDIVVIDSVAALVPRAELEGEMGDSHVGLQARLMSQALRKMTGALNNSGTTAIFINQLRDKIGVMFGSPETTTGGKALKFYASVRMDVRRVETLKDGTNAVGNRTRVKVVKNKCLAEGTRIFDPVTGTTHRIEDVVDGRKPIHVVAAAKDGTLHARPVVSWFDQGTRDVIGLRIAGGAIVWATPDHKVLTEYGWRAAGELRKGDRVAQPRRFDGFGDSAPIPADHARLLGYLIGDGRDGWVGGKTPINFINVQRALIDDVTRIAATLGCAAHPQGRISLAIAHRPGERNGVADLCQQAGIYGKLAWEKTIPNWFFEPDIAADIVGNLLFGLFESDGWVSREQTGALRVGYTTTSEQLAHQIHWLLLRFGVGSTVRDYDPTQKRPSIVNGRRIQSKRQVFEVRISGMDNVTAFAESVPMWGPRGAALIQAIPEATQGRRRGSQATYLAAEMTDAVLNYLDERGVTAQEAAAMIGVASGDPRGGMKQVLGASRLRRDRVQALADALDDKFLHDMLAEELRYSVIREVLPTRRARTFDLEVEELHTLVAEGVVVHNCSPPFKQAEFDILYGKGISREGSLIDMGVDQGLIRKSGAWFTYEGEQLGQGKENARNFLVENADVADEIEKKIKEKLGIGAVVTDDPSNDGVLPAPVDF

[21] = system: HEK293; assay: cells; assay type: functional, cell-based; settings: Homo sapiens; remark: listed apart in the source
[22] = target: T4, Replicative DNA helicase DnaB (Mycobacterium tuberculosis, UniProt P9WMR3); assay: DnaB intein splicing inhibitors, dose response, biochemical, cell-free fluorescence (AID 449749); assay type: functional
T4 sequence (P9WMR3 whole entry): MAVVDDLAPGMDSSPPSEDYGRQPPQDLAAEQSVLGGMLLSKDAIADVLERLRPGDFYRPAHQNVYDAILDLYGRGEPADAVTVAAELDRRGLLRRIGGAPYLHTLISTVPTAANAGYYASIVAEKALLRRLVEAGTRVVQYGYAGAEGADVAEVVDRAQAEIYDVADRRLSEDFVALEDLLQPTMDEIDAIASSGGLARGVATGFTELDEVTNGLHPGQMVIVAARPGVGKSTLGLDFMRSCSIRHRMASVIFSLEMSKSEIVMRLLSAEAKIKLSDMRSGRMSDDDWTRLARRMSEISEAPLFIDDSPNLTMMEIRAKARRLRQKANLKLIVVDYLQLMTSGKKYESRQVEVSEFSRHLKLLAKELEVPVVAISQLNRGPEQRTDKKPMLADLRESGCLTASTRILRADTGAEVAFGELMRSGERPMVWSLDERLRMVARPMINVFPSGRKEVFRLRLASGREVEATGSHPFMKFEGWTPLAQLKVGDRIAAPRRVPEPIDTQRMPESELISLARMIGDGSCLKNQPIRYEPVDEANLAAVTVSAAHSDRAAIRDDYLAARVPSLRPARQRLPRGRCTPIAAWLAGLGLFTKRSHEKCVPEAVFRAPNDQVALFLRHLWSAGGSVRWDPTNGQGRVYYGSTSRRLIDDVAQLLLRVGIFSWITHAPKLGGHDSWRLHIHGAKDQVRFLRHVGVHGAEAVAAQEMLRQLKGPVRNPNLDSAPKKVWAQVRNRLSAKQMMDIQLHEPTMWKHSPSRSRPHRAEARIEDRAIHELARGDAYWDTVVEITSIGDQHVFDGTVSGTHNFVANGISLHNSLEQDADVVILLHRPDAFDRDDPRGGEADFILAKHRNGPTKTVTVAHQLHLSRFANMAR

[23] = target: T5, Microphthalmia-associated transcription factor (Homo sapiens, UniProt O75030); assay: TRPM1 promoter luciferase signal decrease, dose response, MITF inhibitor project, cell-based, SK-MEL-5, cherry-picked, set 3 (AID 493073); assay type: functional
T5 sequence (O75030 whole entry): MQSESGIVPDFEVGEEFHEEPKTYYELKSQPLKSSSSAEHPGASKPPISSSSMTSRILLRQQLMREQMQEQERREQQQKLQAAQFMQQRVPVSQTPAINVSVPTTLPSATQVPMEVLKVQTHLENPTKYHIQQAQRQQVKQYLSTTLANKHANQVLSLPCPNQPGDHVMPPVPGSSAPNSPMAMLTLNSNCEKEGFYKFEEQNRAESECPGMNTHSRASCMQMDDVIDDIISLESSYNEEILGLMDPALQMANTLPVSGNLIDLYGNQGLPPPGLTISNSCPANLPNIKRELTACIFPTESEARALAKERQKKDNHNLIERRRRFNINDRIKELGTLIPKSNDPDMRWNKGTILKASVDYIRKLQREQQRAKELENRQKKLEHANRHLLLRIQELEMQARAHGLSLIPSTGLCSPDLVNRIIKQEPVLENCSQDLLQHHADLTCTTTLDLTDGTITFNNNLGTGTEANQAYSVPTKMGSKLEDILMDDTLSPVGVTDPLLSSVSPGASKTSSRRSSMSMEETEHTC

[24] = system: HEK293; assay: NOD1 signaling inhibitors, primary screen, cell-based, luminescence, uHTS (AID 1578); assay type: functional; settings: Homo sapiens

DNA dC->dU-editing enzyme APOBEC-3A, sequence (P31941 whole entry): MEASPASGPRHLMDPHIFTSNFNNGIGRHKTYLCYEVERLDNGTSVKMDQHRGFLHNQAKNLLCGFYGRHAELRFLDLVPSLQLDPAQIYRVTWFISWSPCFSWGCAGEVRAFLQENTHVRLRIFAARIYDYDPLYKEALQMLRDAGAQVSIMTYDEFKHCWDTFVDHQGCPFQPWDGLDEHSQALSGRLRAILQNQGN
Peroxisome proliferator-activated receptor gamma/Nuclear receptor coactivator 2, sequence (P37231 whole entry): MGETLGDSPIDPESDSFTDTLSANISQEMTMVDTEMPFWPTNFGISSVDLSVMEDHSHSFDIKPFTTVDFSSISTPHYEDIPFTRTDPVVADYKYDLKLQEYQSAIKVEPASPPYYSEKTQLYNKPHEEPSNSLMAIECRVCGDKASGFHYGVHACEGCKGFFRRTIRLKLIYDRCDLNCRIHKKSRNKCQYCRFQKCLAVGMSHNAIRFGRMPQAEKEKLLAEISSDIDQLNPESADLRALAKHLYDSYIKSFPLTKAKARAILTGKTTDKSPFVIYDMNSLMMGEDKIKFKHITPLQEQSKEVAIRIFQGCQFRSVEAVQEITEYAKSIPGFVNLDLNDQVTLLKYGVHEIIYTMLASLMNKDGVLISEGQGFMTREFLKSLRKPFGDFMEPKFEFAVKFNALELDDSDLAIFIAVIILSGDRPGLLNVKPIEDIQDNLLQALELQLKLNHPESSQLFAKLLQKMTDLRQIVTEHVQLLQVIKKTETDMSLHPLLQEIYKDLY
Peroxisome proliferator-activated receptor gamma/Nuclear receptor coactivator 2, sequence (Q15596 whole entry, further chain): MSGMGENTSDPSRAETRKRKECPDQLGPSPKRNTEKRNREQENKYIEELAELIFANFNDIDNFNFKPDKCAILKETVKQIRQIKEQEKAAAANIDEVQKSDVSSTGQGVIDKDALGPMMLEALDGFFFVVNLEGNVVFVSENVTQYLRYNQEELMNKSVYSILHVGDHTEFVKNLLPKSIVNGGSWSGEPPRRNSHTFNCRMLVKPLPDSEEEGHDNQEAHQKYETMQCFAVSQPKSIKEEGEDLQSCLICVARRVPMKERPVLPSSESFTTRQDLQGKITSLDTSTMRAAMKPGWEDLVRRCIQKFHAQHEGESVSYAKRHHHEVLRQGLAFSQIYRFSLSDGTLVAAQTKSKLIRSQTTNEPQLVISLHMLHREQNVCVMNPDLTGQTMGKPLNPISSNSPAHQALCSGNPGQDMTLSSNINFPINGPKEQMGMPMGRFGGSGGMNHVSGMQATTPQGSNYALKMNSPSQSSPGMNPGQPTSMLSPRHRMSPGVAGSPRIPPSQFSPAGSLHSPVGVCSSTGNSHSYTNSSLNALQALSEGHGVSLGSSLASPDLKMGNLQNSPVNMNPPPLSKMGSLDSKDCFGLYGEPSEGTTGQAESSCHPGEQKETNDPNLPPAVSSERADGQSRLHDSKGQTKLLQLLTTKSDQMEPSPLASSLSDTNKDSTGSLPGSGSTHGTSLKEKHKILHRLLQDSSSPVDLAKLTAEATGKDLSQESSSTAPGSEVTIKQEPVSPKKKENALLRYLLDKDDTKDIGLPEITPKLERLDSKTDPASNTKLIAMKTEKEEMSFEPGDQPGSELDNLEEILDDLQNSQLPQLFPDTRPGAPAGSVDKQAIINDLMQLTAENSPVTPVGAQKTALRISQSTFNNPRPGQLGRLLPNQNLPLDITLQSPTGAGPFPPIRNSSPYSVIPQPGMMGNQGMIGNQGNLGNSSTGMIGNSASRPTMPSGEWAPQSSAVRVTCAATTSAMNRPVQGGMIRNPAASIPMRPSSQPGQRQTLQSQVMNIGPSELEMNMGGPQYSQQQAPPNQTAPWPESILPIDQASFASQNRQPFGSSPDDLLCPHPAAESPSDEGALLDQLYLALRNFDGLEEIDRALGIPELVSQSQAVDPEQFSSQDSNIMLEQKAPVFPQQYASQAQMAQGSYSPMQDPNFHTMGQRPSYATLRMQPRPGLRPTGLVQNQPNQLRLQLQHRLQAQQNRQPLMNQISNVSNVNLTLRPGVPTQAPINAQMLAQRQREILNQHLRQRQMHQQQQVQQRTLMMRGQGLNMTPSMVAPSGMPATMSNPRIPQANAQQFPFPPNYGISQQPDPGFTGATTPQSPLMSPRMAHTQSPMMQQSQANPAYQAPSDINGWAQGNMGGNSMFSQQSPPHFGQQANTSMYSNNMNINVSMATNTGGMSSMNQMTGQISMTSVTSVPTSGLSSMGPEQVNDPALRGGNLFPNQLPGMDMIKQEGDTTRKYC
Peroxisome proliferator-activated receptor gamma/Nuclear receptor coactivator 3, sequence (P37231 whole entry): as the sequence (P37231 whole entry) above
Peroxisome proliferator-activated receptor gamma/Nuclear receptor coactivator 3, sequence (Q9Y6Q9 whole entry, further chain): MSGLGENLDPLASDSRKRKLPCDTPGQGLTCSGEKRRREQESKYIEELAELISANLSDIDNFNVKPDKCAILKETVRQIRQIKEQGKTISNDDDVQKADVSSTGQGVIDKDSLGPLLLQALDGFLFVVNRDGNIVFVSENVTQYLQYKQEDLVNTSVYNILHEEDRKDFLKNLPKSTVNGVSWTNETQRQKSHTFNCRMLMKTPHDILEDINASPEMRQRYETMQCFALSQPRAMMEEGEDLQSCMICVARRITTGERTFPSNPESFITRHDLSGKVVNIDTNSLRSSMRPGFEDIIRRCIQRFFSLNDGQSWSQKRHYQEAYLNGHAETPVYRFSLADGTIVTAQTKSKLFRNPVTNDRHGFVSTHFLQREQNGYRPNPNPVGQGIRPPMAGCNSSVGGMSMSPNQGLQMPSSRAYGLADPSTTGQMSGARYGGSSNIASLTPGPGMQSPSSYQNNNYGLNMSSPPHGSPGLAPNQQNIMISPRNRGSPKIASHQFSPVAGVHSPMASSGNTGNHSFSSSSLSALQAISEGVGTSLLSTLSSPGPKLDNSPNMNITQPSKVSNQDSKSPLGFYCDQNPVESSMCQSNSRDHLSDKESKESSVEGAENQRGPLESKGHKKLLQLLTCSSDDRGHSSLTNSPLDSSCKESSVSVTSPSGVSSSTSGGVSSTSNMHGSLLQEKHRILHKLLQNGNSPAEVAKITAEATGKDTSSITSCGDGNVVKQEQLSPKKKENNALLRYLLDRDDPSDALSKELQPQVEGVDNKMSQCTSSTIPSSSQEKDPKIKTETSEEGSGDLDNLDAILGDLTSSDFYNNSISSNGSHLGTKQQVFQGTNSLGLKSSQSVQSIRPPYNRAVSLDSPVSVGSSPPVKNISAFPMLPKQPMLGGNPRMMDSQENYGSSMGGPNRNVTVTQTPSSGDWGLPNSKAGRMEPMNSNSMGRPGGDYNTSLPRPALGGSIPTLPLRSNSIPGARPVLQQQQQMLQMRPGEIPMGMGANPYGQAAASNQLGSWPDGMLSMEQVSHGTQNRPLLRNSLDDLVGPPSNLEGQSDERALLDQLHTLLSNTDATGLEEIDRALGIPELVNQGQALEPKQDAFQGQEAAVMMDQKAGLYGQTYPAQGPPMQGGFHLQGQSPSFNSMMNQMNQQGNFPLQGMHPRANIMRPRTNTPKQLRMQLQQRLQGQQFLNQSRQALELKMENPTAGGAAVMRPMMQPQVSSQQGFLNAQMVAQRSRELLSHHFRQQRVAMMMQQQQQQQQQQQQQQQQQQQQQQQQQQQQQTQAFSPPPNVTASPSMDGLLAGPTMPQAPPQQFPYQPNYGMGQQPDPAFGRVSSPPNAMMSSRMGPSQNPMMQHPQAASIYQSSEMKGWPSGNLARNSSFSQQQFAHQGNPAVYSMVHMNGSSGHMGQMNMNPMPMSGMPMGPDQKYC
DNA dC->dU-editing enzyme APOBEC-3G, sequence (Q9HC16 whole entry): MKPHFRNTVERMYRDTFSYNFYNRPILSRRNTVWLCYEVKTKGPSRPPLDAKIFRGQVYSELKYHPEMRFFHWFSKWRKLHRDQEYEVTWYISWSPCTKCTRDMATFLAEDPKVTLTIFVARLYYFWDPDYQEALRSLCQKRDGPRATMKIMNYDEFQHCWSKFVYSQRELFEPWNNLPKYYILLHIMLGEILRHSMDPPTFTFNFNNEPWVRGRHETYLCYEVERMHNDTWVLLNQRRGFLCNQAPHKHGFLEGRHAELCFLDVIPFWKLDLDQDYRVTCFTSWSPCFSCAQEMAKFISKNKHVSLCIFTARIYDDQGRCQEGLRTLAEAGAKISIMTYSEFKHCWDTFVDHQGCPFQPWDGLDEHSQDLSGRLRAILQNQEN
Glucose-6-phosphate 1-dehydrogenase, sequence (P11413 whole entry): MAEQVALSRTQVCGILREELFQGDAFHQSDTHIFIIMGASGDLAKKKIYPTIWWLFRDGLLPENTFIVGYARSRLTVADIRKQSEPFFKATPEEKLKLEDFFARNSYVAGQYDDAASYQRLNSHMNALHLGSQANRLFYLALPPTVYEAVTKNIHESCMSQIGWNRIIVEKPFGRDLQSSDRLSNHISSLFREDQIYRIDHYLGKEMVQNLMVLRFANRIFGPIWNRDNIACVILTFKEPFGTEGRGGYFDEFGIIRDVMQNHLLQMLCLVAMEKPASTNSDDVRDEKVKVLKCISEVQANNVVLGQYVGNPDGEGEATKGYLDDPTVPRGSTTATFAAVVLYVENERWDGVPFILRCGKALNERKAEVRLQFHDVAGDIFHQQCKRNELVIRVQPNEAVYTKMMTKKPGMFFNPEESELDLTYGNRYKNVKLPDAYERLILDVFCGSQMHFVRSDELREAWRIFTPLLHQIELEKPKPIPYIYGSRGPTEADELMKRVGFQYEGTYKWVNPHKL

## Cc1cccc[n+]1C1C(c2ccccc2)C(C#N)=C([C-](C#N)C#N)NC1(O)C1CC1 (centres undefined)
[1]
  EC50: > 79.4 µM (inactive)
[2]
  EC50: > 79.4 µM (not active)
[3]
  EC50: > 79.4 µM (not active)

## FC(F)(Cl)c1nnc2ccc(Cl)nn12
[4]
  CC50: 16.5 µM (active)
[5]
  IC50: 0.75 µM (active)
[6]
  CC50: 16.7 µM (active)
[7]
  CC50: 10.8 µM (active)

## Oc1ccc(/N=C/c2ccc(-c3cccs3)s2)cc1
[1]
  EC50: 8.81 µM (active)
[2]
  EC50: 12 µM (not active)
[8]
  IC50: 4.2 µM (active)
[3]
  EC50: 73 µM (not active)
[9]
  IC50: > 100 µM (inactive)

## CCN1C(NCCCOC(C)C)=N[C@@H](CCc2ccccc2)[C@H](C(=O)NCCCOC(C)C)[C@H]1C
[10]
  IC50: 2.91 µM (active)
[11]
  IC50: 3.6 µM (active)

## CCCOc1ccc(C2C(C(=O)OC)=CN(CCOC)C=C2C(=O)OC)cc1
[8]
  IC50: 2.22 µM (active)
[9]
  IC50: > 100 µM (inactive)

## COc1ccc(N(CC(=O)NCCSc2ccc(C)cc2)S(=O)(=O)c2ccccc2)c(OC)c1
[10]
  IC50: 10.9 µM (active)
[11]
  IC50: 9.82 µM (active)

## Cn1c(-[n+]2c(-c3ccccc3)cc(-c3ccccc3)cc2-c2ccccc2)nc2cc([N+](=O)[O-])ccc21
[10]
  IC50: 19.1 µM (active)
[11]
  IC50: 22.7 µM (active)

## C/[N+]([O-])=C\c1ccc2cccc(O)c2n1
[12]
  IC50: 16.4 µM (active)
[13]
  IC50: 1.68 µM (active)
[5]
  IC50: 11.6 µM (active)
[6]
  CC50: 15.6 µM (active)
[7]
  CC50: 35 µM (active)
[14]
  IC50: 11.8 µM (active)
[15]
  IC50: > 80 µM (inactive)

## Cc1cc2nc(-c3ccc(SCc4ccccc4C#N)nc3)[nH]c2cc1C
[1]
  EC50: > 79.4 µM (inactive)
[2]
  EC50: > 79.4 µM (not active)
[3]
  EC50: > 79.4 µM (not active)

## O=C(CCl)N1N=C(c2ccco2)CC1c1cccs1 (centres undefined)
[16]
  IC50: 4.77 µM (active)
[17]
  IC50: > 20 µM (inactive)
[18]
  IC50: > 20 µM (inactive)
[19]
  EC50: 16.7 µM (active)
[20]
  EC50: 2.16 µM (active)
[21]
  IC50: 5.32 µM (active)
[22]
  AC50: 92.5 µM (active)
[23]
  AC50: 7.84 µM (active)
[24]
  EC50: 7.24 µM (active)
